“And” between values parts separate entries of the source, which are not always exact repeats. Equal values may be shown once.
Tests used:
Experiment in all cases: Post-emergence application in field trials, herbicidal activity (damage scale 0 to 100%)
Assay type in all cases: in vivo
Zea mays (ZEAMX) = tested on: Zea mays (ZEAMX)
In short: (§1)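 Field sites with natural or seeded weeds were sprayed post-emergence via flat fan nozzles in 200 l/ha water plus 0.25 v/v % MSO adjuvant, solo or mixed with pyroxasulfone and other partners. Damage was scored 0–100% versus untreated plants at indicated DAT. Colby expected values were used to judge synergy.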

Hordeum vulgare (HORVW) = tested on: Hordeum vulgare (HORVW)
In short: as §1

[1] = tested on: Amaranthus retroflexus (AMARE)
In short: as §1

[2] = tested on: Setaria verticillata (SETVE); details: stage 21-23, height 8-16 cm
In short: as §1

Measured: % Herbicidal activity

CCOC(=O)COc1ccccc1Oc1nc(-n2c(=O)cc(C(F)(F)F)n(C)c2=O)c(F)cc1Cl [A-1, ethyl 2-[2-[[3-chloro-5-fluoro-6-[3-methyl-2,6-dioxo-4-(trifluoromethyl)pyrimidin-1-yl]-2-pyridyl]oxy]phenoxy]acetate]
25%: Zea mays (ZEAMX); 21 DAT, stage 15-16, height 27-33 cm, g ai/ha A-1 12.5, B 70, C-12 252
20%: Zea mays (ZEAMX); 42 DAT, stage 15-16, height 27-33 cm, g ai/ha A-1 18, B 70, C-12 252 | Zea mays (ZEAMX); 42 DAT, stage 15-16, height 27-33 cm, g ai/ha A-1 18, B 90, C-12 252
90%: [1]; 42 DAT, stage 31-49, height 10-12 cm, g ai/ha A-1 18, B 70 | [1]; AMARE, growth stage 31-49, height 10-12 cm, A-1 12.5 g ai/ha, 21 DAT, Table 4.3
40%: Zea mays (ZEAMX); 7 DAT, stage 15-16, height 27-33 cm, g ai/ha A-1 12.5, B 70, C-12 252 | Zea mays (ZEAMX); 7 DAT, stage 15-16, height 27-33 cm, g ai/ha A-1 18, B 70, C-12 252 | Zea mays (ZEAMX); 7 DAT, stage 15-16, height 27-33 cm, g ai/ha A-1 18, B 90, C-12 252
50%: [2]; 42 DAT, g ai/ha A-1 12.5, B 70
15%: Zea mays (ZEAMX); 42 DAT, stage 15-16, height 27-33 cm, g ai/ha A-1 12.5, B 70, C-12 252
65%: [2]; 21 DAT, g ai/ha A-1 18, B 90, C-12 252
55%: Zea mays (ZEAMX); 7 DAT, stage 15-16, height 27-33 cm, g ai/ha A-1 18, B 90, C-4 12.5
70%: Hordeum vulgare (HORVW); 7 DAT, stage 23-29, height 20-25 cm, g ai/ha A-1 12.5, B 70, C-12 252 | Hordeum vulgare (HORVW); 7 DAT, stage 23-29, height 20-25 cm, g ai/ha A-1 18, B 70, C-12 252 | Hordeum vulgare (HORVW); 7 DAT, stage 23-29, height 20-25 cm, g ai/ha A-1 18, B 90, C-12 252 | Hordeum vulgare (HORVW); 21 DAT, stage 23-29, height 20-25 cm, g ai/ha A-1 12.5, B 70, C-12 252 | Hordeum vulgare (HORVW); 21 DAT, stage 23-29, height 20-25 cm, g ai/ha A-1 18, B 70, C-12 252 | Hordeum vulgare (HORVW); 21 DAT, stage 23-29, height 20-25 cm, g ai/ha A-1 18, B 90, C-12 252 | Hordeum vulgare (HORVW); 28 DAT, stage 23-29, height 20-25 cm, g ai/ha A-1 12.5, B 70, C-12 252 | Hordeum vulgare (HORVW); 28 DAT, stage 23-29, height 20-25 cm, g ai/ha A-1 18, B 70, C-12 252 | Hordeum vulgare (HORVW); 28 DAT, stage 23-29, height 20-25 cm, g ai/ha A-1 18, B 90, C-12 252 | Hordeum vulgare (HORVW); HORVW, growth stage 23-29, height 20-25 cm, A-1 12.5 g ai/ha, 7 DAT, Table 4.2 | Hordeum vulgare (HORVW); HORVW, growth stage 23-29, height 20-25 cm, A-1 12.5 g ai/ha, 21 DAT, Table 4.4 | Hordeum vulgare (HORVW); HORVW, growth stage 23-29, height 20-25 cm, A-1 12.5 g ai/ha, 28 DAT, Table 4.5 | Hordeum vulgare (HORVW); HORVW, growth stage 23-29, height 20-25 cm, A-1 18 g ai/ha, 7 DAT, Table 4.2 | Hordeum vulgare (HORVW); HORVW, growth stage 23-29, height 20-25 cm, A-1 18 g ai/ha, 21 DAT, Table 4.4 | Hordeum vulgare (HORVW); HORVW, growth stage 23-29, height 20-25 cm, A-1 18 g ai/ha, 28 DAT, Table 4.5 | [2]; 7 DAT, g ai/ha A-1 18, B 70, C-12 252 | [2]; 7 DAT, g ai/ha A-1 18, B 90, C-12 252
75%: [2]; 7 DAT, g ai/ha A-1 18, B 70, C-8 840 | [2]; 7 DAT, g ai/ha A-1 18, B 90, C-8 840
80% and 93%: [1]; AMARE, growth stage 31-49, height 10-12 cm, A-1 18 g ai/ha, 7 DAT, Table 4.1
85%: Zea mays (ZEAMX); Table 8.1, 7 DAT, stage 15-16, height 50-60 cm, g ai/ha A-1 18, B 70, C-12 1066 | Zea mays (ZEAMX); Table 8.1, 7 DAT, stage 15-16, height 50-60 cm, g ai/ha A-1 18, B 90, C-12 1066 | Zea mays (ZEAMX); ZEAMX, growth stage 15-16, height 40-60 cm, A-1 18 g ai/ha, 7 DAT, Table 4.2 | [1]; 42 DAT, stage 31-49, height 10-12 cm, g ai/ha A-1 18, B 70, C-4 12.5 | [1]; 42 DAT, stage 31-49, height 10-12 cm, g ai/ha A-1 18, B 90, C-4 12.5
30%: Zea mays (ZEAMX); 21 DAT, stage 15-16, height 27-33 cm, g ai/ha A-1 18, B 70, C-12 252 | Zea mays (ZEAMX); 21 DAT, stage 15-16, height 27-33 cm, g ai/ha A-1 18, B 90, C-12 252
80% and 92%: [1]; AMARE, growth stage 31-49, height 10-12 cm, A-1 18 g ai/ha, 21 DAT, Table 4.3
80%: Zea mays (ZEAMX); ZEAMX, growth stage 15-16, height 40-60 cm, A-1 18 g ai/ha, 21 DAT, Table 4.4 | [1]; 7 DAT, stage 31-49, height 10-12 cm, g ai/ha A-1 12.5, B 70, C-4 12.5 | [1]; 21 DAT, stage 31-49, height 10-12 cm, g ai/ha A-1 18, B 70, C-12 252 | [1]; 21 DAT, stage 31-49, height 10-12 cm, g ai/ha A-1 18, B 90, C-12 252 | [1]; 42 DAT, stage 31-49, height 10-12 cm, g ai/ha A-1 12.5, B 70, C-4 12.5 | [1]; AMARE, growth stage 31-49, height 10-12 cm, A-1 12.5 g ai/ha, 7 DAT, Table 4.1 | [2]; 7 DAT, g ai/ha A-1 18, B 90, C-4 12.5

Source: patent US12690589B2, “Herbicidal compositions comprising pyroxasulfone” (BASF SE, priority 2024, dated 2026)
